Key:
Format in all cases: biochemical
[1] = system: 3′-5′ cAMP-PDE activity in bovine spermatozoa; assay: 3′-5′ cAMP-PDE assay with family-specific PDE inhibitors in bovine spermatozoa; conditions: for Percentage of family specific sensitive PDE activity, 3 h Egg yolk: bovine spermatozoa after 3 h in egg yolk based cryoprotectant at 18° C.; for Percentage of family specific sensitive PDE activity, 3 h Liquid semen: bovine spermatozoa after 3 h in liquid semen extender at 18° C.; for Percentage of family specific sensitive PDE activity, 3 h 4° C.: bovine spermatozoa after 3 h in seminal plasma at 4° C.; for Percentage of family specific sensitive PDE activity, 3 h 18° C.: bovine spermatozoa after 3 h in seminal plasma at 18° C.; for Percentage of family specific sensitive PDE activity, Fresh: bovine spermatozoa rapidly after ejaculation (0 h); for Percentage of total PDE activity sensitive to the inhibitor: cilostamide 10 μM, rolipram 10 μM, papaverine 400 nM (FIG. 12B); for Percentage of sensitive PDE activity, Cryo (B): cryopreserved bovine spermatozoa; for Percentage of sensitive PDE activity, Cryo (B) / Percentage of sensitive PDE activity, Fresh (A): Cil 10 μM, Rol 10 μM, Papa 400 nM; for Percentage of sensitive PDE activity, Fresh (A): freshly ejaculated bovine spermatozoa
Description: The semen was obtained from different Holstein bulls. The fresh ejaculated semen was kept in an insulated thermos flask, at 18° C., during transportation to the laboratory and processed within 3 hours after collection. The cryopreserved semen was obtained at the Centre d'Insémination […] du Québec (CIAQ) […]. The cryopreserved straws of semen were prepared according to CIAQ procedures. […] After cutting one end of the straw the semen was collected in a 15 ml falcon while cutting the other end. From this point fresh and cryopreserved semen were processed similarly. Approximately 50 μL of the semen was added to 5 mL of Talp-BSA medium in a 15 mL falcon tube to wash the spermatozoa. After centrifugation (280×g, 10 min, room temperature), the remaining pellet of approximately 100 μL was resuspended in Talp-BSA medium (500 μl for the fresh and 200 μl for two straws) to reach a concentration of 1×10^6 cells/10 μL. The samples were then vortex-agitated for 30 sec and kept on the ice until ready to run the assay. The concentration of sperm cells was measured according to hemacytometer method. The cAMP enzymatic assay (PDE assay) was conducted as previously described ([…]. et al., (2006). […] J. et al., (1979). Adv Cyclic Nucleotide Res 10, 69-92) with minor modifications. […] Measurements were also performed in the presence of PDE inhibitors: […] Cilostamide and Rolipram were purchased from Biomol. […] Each PDE assay was performed in triplicate for each experiment and each experiment was repeated at least three times. As described ([…]. et al., (2009). […] IBMX-sensitive PDE5 and PDE6 and IBMX-insensitive PDE9 activities are absent from these groups because cGMP is the specific substrate and then are not detected in the cAMP-PDE assay. […] J Dairy Sci 92, 3757-3765; […]., et al. (2007). Endocrinology 148, 1858-1867; Siuciak, J. A. et al., (2006). Neuropharmacology 51, 386-396).

[2] = system: 3′-5′ cAMP-PDE activity in bovine testis, caput, cauda and seminal vesicles homogenates; assay: 3′-5′ cAMP-PDE assay in bovine testis, caput, cauda and seminal vesicles homogenates; conditions: Rol 10 μM, Papa 400 nM (FIG. 3)
Description: After thoroughly vortex-agitating for about one minute, samples were centrifuged at 10 000×g for 4 minutes at room temperature. Supernatant fluid was collected and diluted in different volumes of hypotonic buffer depending on the tissue. Testis, caput and cauda homogenates were diluted in 1 mL of hypotonic buffer while seminal vesicle homogenates were diluted in 2 mL of hypotonic buffer. Homogenates were kept on ice until subjected to PDE assay. The cAMP enzymatic assay (PDE assay) was conducted as previously described ([…]. et al., (2006). BMC developmental biology 6, 47). […] J. et al., (1979). Adv Cyclic Nucleotide Res 10, 69-92) with minor modifications. […] Measurements were also performed in the presence of PDE inhibitors: […] Cilostamide and Rolipram were purchased from Biomol. […] Each PDE assay was performed in triplicate for each experiment and each experiment was repeated at least three times. As described ([…]. et al., (2009). […] IBMX-sensitive PDE5 and PDE6 and IBMX-insensitive PDE9 activities are absent from these groups because cGMP is the specific substrate and then are not detected in the cAMP-PDE assay. […] J Dairy Sci 92, 3757-3765; […]., et al. (2007). Endocrinology 148, 1858-1867; Siuciak, J. A. et al., (2006). Neuropharmacology 51, 386-396).

[3] = system: 3′-5′ cAMP-PDE activity in human seminal plasma; assay: 3′-5′ cAMP-PDE assay with family-specific PDE inhibitors in human seminal plasma; conditions: fresh human seminal plasma; Rolipram 10 μM, Papaverine 400 nM (FIG. 19)
Description: A certain amount of complete ejaculate was kept to isolate spermatozoa from seminal plasma. This portion was centrifuged at 400×g during 10 minutes at room temperature to gently pull down spermatozoa. Supernatant was transferred and centrifuged again at 6 000×g at 4° C. during 20 minutes to pull down any remaining spermatozoa. Supernatant was then transferred and centrifuged at 6 000×g at 4° C. during 20 minutes to remove any remaining debris. SP samples were kept on ice until used for PDE assay and stored at -80° C. for further characterization. The cAMP enzymatic assay (PDE assay) was conducted as previously described ([…]. et al., (2006). BMC developmental biology 6, 47). […] J. et al., (1979). Adv Cyclic Nucleotide Res 10, 69-92) with minor modifications. […] Measurements were also performed in the presence of PDE inhibitors: […] Cilostamide and Rolipram were purchased from Biomol. […] Each PDE assay was performed in triplicate for each experiment and each experiment was repeated at least three times. As described ([…]. et al., (2009). […] IBMX-sensitive PDE5 and PDE6 and IBMX-insensitive PDE9 activities are absent from these groups because cGMP is the specific substrate and then are not detected in the cAMP-PDE assay. […] J Dairy Sci 92, 3757-3765; […]., et al. (2007). Endocrinology 148, 1858-1867; Siuciak, J. A. et al., (2006). Neuropharmacology 51, 386-396).

[4] = bovine spermatozoa, 1 μM cAMP, IBMX 1 mM

| SMILES | Percentage of family specific sensitive PDE activity, 3 h Egg yolk [1] [%] | Percentage of family specific sensitive PDE activity, 3 h Liquid semen [1] [%] | Percentage of family specific sensitive PDE activity, 3 h 4° C. [1] [%] | Percentage of family specific sensitive PDE activity, 3 h 18° C. [1] [%] | Percentage of family specific sensitive PDE activity, Fresh [1] [%] | Percentage of total PDE activity sensitive to the inhibitor [1, 4] [%] | Percentage of sensitive PDE activity, Cryo (B) ([1]; IBMX 1 mM) [%] | Percentage of sensitive PDE activity, Fresh (A) ([1]; IBMX 1 mM) [%] | Percentage of total PDE activity that is IBMX-insensitive (PDE8) [1, 4] [%] | Inhibitor-sensitive PDE activity in bovine male reproductive tissues (in words) [2] | Inhibitor-sensitive PDE activity in human seminal plasma (in words) [3] | Increase of the inhibited proportion of cAMP-PDE activity relative to papaverine ([1]; freshly ejaculated bovine spermatozoa (FIG. 21)) [%] |
| --- | --- | --- | --- | --- | --- | --- | --- | --- | --- | --- | --- | --- |
| CN(C(=O)CCCOc1ccc2[nH]c(=O)ccc2c1)C1CCCCC1 [Cilostamide] | 24 | 7 | 11 | 20 | 13 | 9 | 5 | 14 | – | – | – | – |
| CC(C)Cn1c(=O)n(C)c(=O)c2[nH]cnc21 [IBMX, 3-isobutyl-1-methylxanthine] | 96 | 96 | 96 | 95 | 95 | 92 | 96 | 94 | 8 | – | – | – |
| COc1ccc(C2CNC(=O)C2)cc1OC1CCCC1 (stereo not shown) [Rolipram] | 18 | 11 | 12 | 9 | 11 | 11 | 10 | 12 | – | highly functional | high | – |
| OCCN(CCO)c1nc(N2CCCCC2)c2nc(N(CCO)CCO)nc(N3CCCCC3)c2n1 [dipyridamol, dipyridamole] | – | – | – | – | – | – | – | – | – | – | – | 10 |

Reference: patent publication US20120225417A1, “Methods, Compositions and Kits for the Evaluation and Preservation of Sperm” (I'Alliance Boviteq Inc., priority 2011, published 2012)
